Our source for the TGI and GI50 values is PubChem BioAssay (NCI).

Where “and” joins values, the source holds several entries; their conditions need not be identical. Identical values can stand only once.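 Tested at 5 concentrations; 48 h exposure; 96-well plates; endpoints linearly interpolated, else capped at highest concentration. GI50 marks 50% less growth. TGI is the concentration that stops growth completely.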 A value given as a limit tells only on which side of the number the result lay.

Some test systems named below: A498 renal; A549 NSCLC; LOX IMVI melanoma; OVCAR-3 ovarian; OVCAR-8 ovarian; RXF 393 renal; SK-MEL-5 melanoma; SN12C renal; SR leukemia; SW-620 colon.
Common to all, as to experiment: NCI-60 cell line screen, 48 h

`CCN(CC)CCC1CC/C(=C\c2ccc(OC)cc2)C1=O` (centres undefined): the TGI in the assay with A498 renal, in the assay on A549 NSCLC, in the assay with LOX IMVI melanoma, with OVCAR-3 ovarian, in the assay with OVCAR-8 ovarian and in the assay on RXF 393 renal was more than 100 µM each time. The TGI in the assay on SK-MEL-5 melanoma is 44 µM; in the assay on SN12C renal, more than 100 µM; in the assay on SR leukemia, more than 100 µM; with SW-620 colon, more than 100 µM.

Turning to `CC(=O)OCC1OC(n2c(-c3ccccc3)cc(-c3ccco3)c(C#N)c2=O)C(OC(C)=O)C(OC(C)=O)C1OC(C)=O` (centres undefined), the TGI in the assay with A498 renal, in the assay with A549 NSCLC, with LOX IMVI melanoma, with OVCAR-3 ovarian, in the assay on OVCAR-8 ovarian and in the assay on RXF 393 renal was more than 100 µM throughout. The TGI in the assay with SK-MEL-5 melanoma, in the assay with SN12C renal, in the assay on SR leukemia and in the assay with SW-620 colon was more than 100 µM each time. In addition, the GI50 in the assay with LOX IMVI melanoma is 2.23 µM and 14.6 µM; in the assay on SN12C renal, 77.2 µM and 23.5 µM; in the assay on SR leukemia, > 100 µM and 46.1 µM.

With `COC1=CC23C=CC1[C@@H](c1ccccc1)C2=C(C)C(=O)N3C(=O)NC1CCCCC1` (some centres undefined), the TGI with A498 renal turned out to be 64.1 µM; in the assay on A549 NSCLC it was 79.8 µM; in the assay with LOX IMVI melanoma, 31.2 µM; in the assay on OVCAR-3 ovarian it was 59.8 µM; in the assay with OVCAR-8 ovarian it was 64.6 µM; with RXF 393 renal, 14.8 µM. Further, the TGI in the assay with SK-MEL-5 melanoma turned out to be 29.2 µM; with SR leukemia, 56.8 µM; with SW-620 colon it was 47.8 µM.

Regarding `CN(C(=O)c1ccc(Cl)s1)C(=S)N(C)C(=O)c1ccc(Cl)s1`, the TGI in the assay with A498 renal, with A549 NSCLC, in the assay on LOX IMVI melanoma, in the assay on OVCAR-3 ovarian, in the assay on OVCAR-8 ovarian and in the assay on RXF 393 renal was more than 10 µM throughout. In addition, the TGI with SK-MEL-5 melanoma, with SN12C renal, with SR leukemia and in the assay on SW-620 colon was more than 10 µM in each case.

For the molecule `CC1(C)C(=O)N(c2ccccc2)C(=O)N1c1nc2ccccc2[nH]1`, the TGI in the assay on A498 renal, in the assay on A549 NSCLC, in the assay with LOX IMVI melanoma, with OVCAR-3 ovarian, in the assay on OVCAR-8 ovarian and in the assay with RXF 393 renal was more than 100 µM throughout. In addition, the TGI is more than 100 µM in the assay on SK-MEL-5 melanoma, more than 100 µM in the assay on SN12C renal, more than 100 µM in the assay with SR leukemia and 36.3 µM in the assay on SW-620 colon.

On to `CC[N+](CCCCCCCCCC[N+](CC)(c1ccccn1)c1ccccn1)(c1ccccn1)c1ccccn1`, for which the GI50 was 1.02 µM in the assay with A498 renal; 0.456 µM in the assay with A549 NSCLC; 1.5 µM in the assay with LOX IMVI melanoma; 1.09 µM in the assay with OVCAR-3 ovarian; 2.11 µM in the assay with OVCAR-8 ovarian; 2.5 µM in the assay on RXF 393 renal. The GI50 was 0.431 µM with SN12C renal, 1.36 µM in the assay with SR leukemia and 2.14 µM with SW-620 colon. Moreover, the TGI in the assay with A498 renal was 5.58 µM; with A549 NSCLC, more than 100 µM; with LOX IMVI melanoma, 4.29 µM; with OVCAR-3 ovarian it was 10.1 µM; in the assay with OVCAR-8 ovarian, 57.5 µM; in the assay on RXF 393 renal, 21.2 µM. Also, the results for the TGI with SN12C renal, in the assay on SR leukemia and with SW-620 colon were 11 µM, 22.1 µM and 15.6 µM, respectively.

As to `O=C(Oc1ccc(O)c2c(=O)n3c(cc12)[nH]c1ccccc13)c1ccccc1`, the GI50 in the assay with A498 renal is 20.9 µM; in the assay on A549 NSCLC, 24 µM; in the assay with LOX IMVI melanoma it was 4.77 µM; in the assay with OVCAR-8 ovarian it was 11.1 µM; in the assay with SK-MEL-5 melanoma, 15.5 µM; in the assay on SN12C renal, 12.6 µM. Moreover, the results for the GI50 with SR leukemia and in the assay on SW-620 colon were 25.9 µM and 5.1 µM, respectively. The TGI with A498 renal worked out at 42.4 µM; with A549 NSCLC, 66.8 µM; in the assay with LOX IMVI melanoma, 20.1 µM; with OVCAR-8 ovarian it was 32.5 µM; in the assay on RXF 393 renal it was 0.505 µM; in the assay on SK-MEL-5 melanoma, 36.9 µM. Further, the TGI is 54 µM in the assay on SN12C renal, 82.2 µM with SR leukemia and 26.9 µM in the assay on SW-620 colon.

For the molecule `C=CCCCCCCCCCCCC1CCC(CC)N1` (centres undefined), the TGI was found to be 38.4 µM with A498 renal; 24.8 µM in the assay on A549 NSCLC; 24.5 µM with LOX IMVI melanoma; 23 µM in the assay with OVCAR-3 ovarian; 16.5 µM in the assay on RXF 393 renal; 25.5 µM in the assay with SK-MEL-5 melanoma. Further, the TGI in the assay on SN12C renal was found to be 24.3 µM; in the assay with SR leukemia it was 7.12 µM; in the assay with SW-620 colon, 24.6 µM.

With `NC(N)=N/N=C(/c1nc2ccc([N+](=O)[O-])cc2[nH]c1=O)C(O)c1ccco1` (centres undefined), the TGI in the assay on A498 renal, in the assay with A549 NSCLC, with LOX IMVI melanoma, in the assay on OVCAR-8 ovarian, in the assay with RXF 393 renal and in the assay with SK-MEL-5 melanoma was more than 100 µM in each case. For the same molecule, the TGI in the assay on SN12C renal, with SR leukemia and in the assay with SW-620 colon was more than 100 µM each time.

Take `COc1ccc(NC(=O)C2C(=O)N(c3ccc(OC)cc3)C(=O)/C2=N/O)cc1` (centres undefined): the TGI with A498 renal was 59.3 µM; in the assay with A549 NSCLC, more than 78.7 µM; with LOX IMVI melanoma, more than 100 µM; with OVCAR-3 ovarian it was more than 59.9 µM; in the assay with OVCAR-8 ovarian, 32 µM; with RXF 393 renal, 30.5 µM. For the same molecule, the figures for the TGI in the assay with SN12C renal, in the assay on SR leukemia and in the assay with SW-620 colon were 71.9 µM, more than 100 µM and more than 100 µM, respectively.
